{
  "source": "patent US9475839B2",
  "about": "“Peptide-based inhibitor of interleukin-10 or interferon-gamma signaling” (THE UNITED STATES OF AMERICA, AS REPRESENTED BY THE …, priority 2010, dated 2016)",
  "note": "Non-standard residues stand in square brackets, D forms with d. Residues, ends and D or L forms follow the SMILES beside them. *: point of attachment. Palmitoyl = CCCCCCCCCCCCCCCC(=O)*",
  "data": [
    {"test_system": "MDA-MB-231 breast cancer cells", "experiment": "Inhibition of IFN-gamma-dependent growth of MDA-MB-231 cells, MTT assay, 48 hours", "type": "cell-based", "conditions": "48 h", "units": {"GI50": "µM"}, "method": "Cells were exposed to compounds for 48 hours and cell number was determined with the help of MTT assay.\nCells were exposed to IL10-HF-1 for 48 hours and cell number was determined with the help of MTT assay.\nPeptides designed to mimic conserved regions of the receptor sequences were tested for the ability to inhibit IL10 and IFN-gamma signaling. Inhibition of IL10 signaling was tested in a mouse mast cell line MC/9. […] Abrogation of IFN-gamma signaling or STAT1 activation causes cell death in this cell line.", "values": [
      {"compound": "CCCCCCCCCCCCCCCC(=O)N[C@@H](Cc1ccccc1)C(=O)N[C@@H](Cc1ccc(O)cc1)C(=O)N[C@H](C(=O)N[C@@H](CCCCN)C(=O)N[C@@H](CCCCN)C(=O)N[C@H](C(=O)N[C@@H](CC(N)=O)C(=O)N1CCC[C@H]1C(=O)N[C@@H](CC(C)C)C(=O)N[C@@H](CCCCN)C(=O)N[C@@H](CCC(=O)O)C(=O)N[C@@H](CCCCN)C(=O)N[C@@H](CO)C(=O)N[C@H](C(=O)N[C@H](C(=O)N[C@@H](CC(C)C)C(=O)N1CCC[C@H]1C(=O)N[C@@H](CCCCN)C(=O)N[C@@H](CO)C(N)=O)[C@@H](C)CC)[C@@H](C)CC)[C@@H](C)CC)[C@@H](C)CC", "note": "[IFNGR1-1, ε-Pal-FYIKKINPLKEKSIILPKS-NH2] (Palmitoyl-FYIKKINPLKEKSIILPKS-NH2)", "GI50": "> 25"},
      {"compound": "CCCCCCCCCCCCCCCC(=O)N1CCC[C@H]1C(=O)N[C@@H](CC(C)C)C(=O)N[C@@H](CCCCN)C(=O)N[C@@H](CCC(=O)O)C(=O)N[C@@H](CCCCN)C(=O)N[C@@H](CO)C(=O)N[C@H](C(=O)N[C@H](C(=O)N[C@@H](CC(C)C)C(=O)N1CCC[C@H]1C(=O)N[C@@H](CCCCN)C(=O)N[C@@H](CO)C(=O)N[C@@H](CC(C)C)C(=O)N[C@@H](CC(C)C)C(=O)N[C@@H](CO)C(=O)N[C@H](C(=O)N[C@H](C(=O)N[C@@H](CCCNC(=N)N)C(N)=O)C(C)C)C(C)C)[C@@H](C)CC)[C@@H](C)CC", "note": "[IFNGR1-3, ε-Pal-PLKEKSIILPKSLLSVVR-NH2] (Palmitoyl-PLKEKSIILPKSLLSVVR-NH2)", "GI50": 0.05},
      {"compound": "CCCCCCCCCCCCCCCC(=O)N[C@H](C(=O)N[C@@H](CC(C)C)C(=O)N1CCC[C@H]1C(=O)N[C@@H](CCCCN)C(=O)N[C@@H](CO)C(=O)N[C@@H](CC(C)C)C(=O)N[C@@H](CC(C)C)C(=O)N[C@@H](CO)C(=O)N[C@H](C(=O)N[C@H](C(=O)N[C@@H](CCCNC(=N)N)C(=O)N[C@@H](CO)C(=O)N[C@@H](C)C(=O)N[C@H](C(N)=O)[C@@H](C)O)C(C)C)C(C)C)[C@@H](C)CC", "note": "[IFNGR1-4, ε-Pal-ILPKSLLSVVRSAT-NH2] (Palmitoyl-ILPKSLLSVVRSAT-NH2)", "GI50": 2.5},
      {"compound": "CCCCCCCCCCCCCCCC(=O)NCCCC[C@H](N)C(=O)NCC(=O)N[C@@H](CCCCN)C(=O)N[C@@H](CCC(=O)O)C(=O)N[C@@H](CO)C(=O)N[C@@H](CC(C)C)C(=O)N[C@H](C(=O)NCC(=O)N[C@@H](Cc1ccc(O)cc1)C(=O)N[C@@H](CCCNC(=N)N)C(=O)N1CCC[C@H]1C(=O)N[C@H](C(N)=O)[C@@H](C)O)[C@@H](C)CC", "note": "[IFNGR1-6, ε-Pal-KGKESLIGYRPT-NH2] (H-K(Palmitoyl)GKESLIGYRPT-NH2; N-terminus assumed)", "GI50": 0.07},
      {"compound": "CCCCCCCCCCCCCCCC(=O)NCCCC[C@H](N)C(=O)NCC(=O)N[C@@H](Cc1ccc(O)cc1)C(=O)N[C@@H](CC(=O)O)C(=O)N[C@@H](CCCCN)C(=O)N1CCC[C@H]1C(=O)N[C@@H](Cc1c[nH]cn1)C(=O)N[C@H](C(=O)N[C@@H](CC(C)C)C(=O)N[C@H](C(=O)N[C@@H](CC(=O)O)C(=O)N[C@@H](CC(C)C)C(=O)N[C@@H](CC(C)C)C(=O)N[C@H](C(=O)N[C@@H](CC(=O)O)C(N)=O)C(C)C)C(C)C)C(C)C", "note": "[IFNGR1-7, ε-Pal-KGYDKPHVLVDLLVD-NH2] (H-K(Palmitoyl)GYDKPHVLVDLLVD-NH2; N-terminus assumed)", "GI50": 1},
      {"compound": "CCCCCCCCCCCCCCCC(=O)NCCCC[C@H](N)C(=O)N[C@@H](CO)C(=O)N[C@H](C(=O)N[C@@H](C)C(=O)N[C@@H](CC(C)C)C(=O)N[C@@H](CC(N)=O)C(=O)N[C@@H](CO)C(=O)N[C@@H](Cc1ccc(O)cc1)C(=O)N[C@@H](Cc1c[nH]cn1)C(=O)N[C@@H](CO)C(=O)N[C@@H](CCCNC(=N)N)C(=O)N[C@@H](CC(N)=O)C(N)=O)[C@@H](C)CC", "note": "[IFNGR1-8, ε-Pal-KSIALNSYHSRN-NH2] (H-K(Palmitoyl)SIALNSYHSRN-NH2; N-terminus assumed)", "GI50": "5 ± 1"},
      {"compound": "CCCCCCCCCCCCCCCC(=O)NCCCC[C@H](N)C(=O)NCC(=O)NCC(=O)N[C@@H](CCCCN)C(=O)N[C@@H](CCC(=O)O)C(=O)N[C@@H](CO)C(=O)N[C@@H](CC(C)C)C(=O)N[C@H](C(=O)NCC(=O)N[C@@H](Cc1ccc(O)cc1)C(=O)N[C@@H](CCCNC(=N)N)C(N)=O)[C@@H](C)CC", "note": "[IFNGR1-10, ε-Pal-KGGKESLIGYR-NH2] (H-K(Palmitoyl)GGKESLIGYR-NH2; N-terminus assumed)", "GI50": 2.5},
      {"compound": "CCCCCCCCCCCCCCCC(=O)NCCCC[C@H](N)C(=O)NCC(=O)N[C@@H](CCCCN)C(=O)N[C@@H](CCC(=O)O)C(=O)N[C@@H](CO)C(=O)N[C@@H](CC(C)C)C(=O)N[C@H](C(=O)NCC(=O)N[C@@H](Cc1ccc(O)cc1)C(=O)N[C@@H](CCCNC(=N)N)C(N)=O)[C@@H](C)CC", "note": "[IFNGR1-11, ε-Pal-KGKESLIGYR-NH2] (H-K(Palmitoyl)GKESLIGYR-NH2; N-terminus assumed)", "GI50": 2},
      {"compound": "CCCCCCCCCCCCCCCC(=O)NCCCC[C@H](N)C(=O)NCC(=O)N[C@@H](Cc1ccc(O)cc1)C(=O)N[C@@H](CC(=O)O)C(=O)N[C@@H](CCCCN)C(=O)N1CCC[C@H]1C(=O)N[C@@H](Cc1c[nH]cn1)C(=O)N[C@H](C(=O)N[C@@H](CC(C)C)C(=O)N[C@H](C(N)=O)C(C)C)C(C)C", "note": "[IFNGR1-12, ε-Pal-KGYDKPHVLV-NH2] (H-K(Palmitoyl)GYDKPHVLV-NH2; N-terminus assumed)", "GI50": 0.6},
      {"compound": "CCCCCCCCCCCCCCCC(=O)NCCCC[C@H](N)C(=O)N[C@@H](CC(C)C)C(=O)N[C@@H](CC(N)=O)C(=O)N[C@@H](CO)C(=O)N[C@@H](Cc1ccc(O)cc1)C(=O)N[C@@H](Cc1c[nH]cn1)C(=O)N[C@@H](CO)C(=O)N[C@@H](CCCNC(=N)N)C(=O)N[C@@H](CC(N)=O)C(=O)NCC(=O)N[C@@H](CO)C(N)=O", "note": "[IFNGR1-13, ε-Pal-KLNSYHSRNGS-NH2] (H-K(Palmitoyl)LNSYHSRNGS-NH2; N-terminus assumed)", "GI50": 4.5},
      {"compound": "CCCCCCCCCCCCCCCC(=O)NCCCC[C@H](N)C(=O)NCC(=O)N[C@@H](Cc1ccc(O)cc1)C(=O)N[C@@H](CC(=O)O)C(=O)N[C@@H](CCCCN)C(=O)N1CCC[C@H]1C(=O)N[C@@H](Cc1c[nH]cn1)C(=O)N[C@H](C(N)=O)C(C)C", "note": "[IFNGR1-15, ε-Pal-KGYDKPHV-NH2] (H-K(Palmitoyl)GYDKPHV-NH2; N-terminus assumed)", "GI50": 1.6},
      {"compound": "CCCCCCCCCCCCCCCC(=O)NCCCC[C@H](N)C(=O)N[C@@H](CCCCN)C(=O)N[C@@H](Cc1ccc(O)cc1)C(=O)N[C@@H](CCC(N)=O)C(=O)N[C@@H](CO)C(=O)N[C@@H](CCCNC(=N)N)C(=O)N[C@H](C(=O)N[C@@H](CCCCN)C(=O)N[C@@H](Cc1ccc(O)cc1)C(=O)N[C@@H](Cc1c[nH]c2ccccc12)C(=O)N[C@@H](Cc1ccccc1)C(=O)N[C@@H](CCC(N)=O)C(=O)N[C@@H](C)C(=O)N1CCC[C@H]1C(=O)N1CCC[C@H]1C(=O)N[C@@H](CC(N)=O)C(=O)N[C@H](C(=O)N1CCC[C@H]1C(=O)O)[C@@H](C)CC)C(C)C", "note": "[IFNGR2-1, ε-Pal-KKYQSRVKYWFQAPPNIP] (H-K(Palmitoyl)KYQSRVKYWFQAPPNIP-OH; N-terminus and C-terminus assumed)", "GI50": 5}
    ]},
    {"test_system": "MDA-MB-231 breast cancer cells", "experiment": "Inhibition of IFN-gamma-dependent growth of MDA-MB-231 cells, MTT assay, 48 hours", "type": "cell-based", "conditions": "Table 1; MTT assay after 48 hours exposure; concentration causing 50% inhibition in cell growth; read-out: GI50, MDA-MB-231", "units": {"GI50": "µM"}, "values": [
      {"compound": "CCCCCCCCCCCCCCCC(=O)NCCCC[C@@H](NC(=O)[C@@H](CCCCN)NC(=O)[C@@H](CC(C)C)NC(=O)[C@H]1CCCN1C(=O)[C@@H](CO)NC(=O)[C@H](NC(=O)[C@@H](CC(C)C)NC(=O)[C@@H](CC(C)C)NC(=O)[C@@H](Cc1ccccc1)NC(=O)[C@@H](CCCCN)NC(=O)[C@@H](CCCCN)NC(=O)[C@H]1CCCN1C(=O)[C@@H](CO)NC(C)=O)C(C)C)C(N)=O", "note": "[IL10R1-9, Ac-SPKKFLLVSPLKK-ε-Pal] (Ac-[dS][dP][dK][dK][dF][dL][dL][dV][dS][dP][dL][dK][dK](Palmitoyl)-NH2; C-terminus assumed)", "GI50": 1},
      {"compound": "CCCCCCCCCCCCCCCC(=O)NCCCC[C@@H](NC(=O)[C@@H](CCCCN)NC(=O)[C@@H](CC(C)C)NC(=O)[C@H]1CCCN1C(=O)[C@@H](CO)NC(=O)[C@H](NC(=O)[C@@H](CC(C)C)NC(=O)[C@@H](CC(C)C)NC(=O)[C@@H](Cc1ccccc1)NC(=O)[C@@H](CCCCN)NC(=O)[C@@H](CCCCN)NC(C)=O)C(C)C)C(N)=O", "note": "[IL10R1-10, Ac-KKFLLVSPLKK-ε-Pal] (Ac-[dK][dK][dF][dL][dL][dV][dS][dP][dL][dK][dK](Palmitoyl)-NH2; C-terminus assumed)", "GI50": 1},
      {"compound": "CCCCCCCCCCCCCCCC(=O)NCCCC[C@@H](NC(=O)[C@@H](CCCCN)NC(=O)[C@@H](CC(C)C)NC(=O)[C@H]1CCCN1C(=O)[C@@H](CO)NC(=O)[C@H](NC(=O)[C@@H](CC(C)C)NC(=O)[C@@H](CC(C)C)NC(=O)[C@@H](Cc1ccccc1)NC(=O)[C@@H](CCCCN)NC(=O)[C@@H](CCCCN)NC(=O)[C@H]1CCCN1C(C)=O)C(C)C)C(N)=O", "note": "[IL10R1-11, Ac-PKKFLLVSPLKK-ε-Pal] (Ac-[dP][dK][dK][dF][dL][dL][dV][dS][dP][dL][dK][dK](Palmitoyl)-NH2; C-terminus assumed)", "GI50": 1}
    ]},
    {"test_system": "MDA-MB-231 breast cancer cells", "experiment": "Inhibition of IFN-gamma-dependent growth of MDA-MB-231 cells, MTT assay, 48 hours", "type": "cell-based", "conditions": "Table 3; MDA-MB-231 breast cancer cell line growth; regions B, C, D of IFNGR1; read-out: GI50", "units": {"GI50": "µM"}, "values": [
      {"compound": "CCCCCCCCCCCCCCCC(=O)NCCCC[C@H](N)C(=O)N[C@@H](Cc1ccccc1)C(=O)NCC(=O)N[C@@H](Cc1ccc(O)cc1)C(=O)N[C@@H](CC(=O)O)C(=O)N[C@@H](CCCCN)C(=O)N1CCC[C@H]1C(=O)N[C@@H](Cc1c[nH]cn1)C(=O)N[C@H](C(N)=O)C(C)C", "note": "[IFNGR1-16, ε-Pal-KFGYDKPHV-NH2] (H-K(Palmitoyl)FGYDKPHV-NH2; N-terminus assumed)", "GI50": 2.1}
    ]}
  ]
}
